Test results as given in paper PMC12176101 (Drug Design, Development and Therapy, 2025).
Residues, ends and D or L forms follow the SMILES beside them.

Each compound was assayed against AChE (Homo sapiens, UniProt P22303) (assay: In vitro anti-AChE assay).
Sequence of AChE (P22303 32-614): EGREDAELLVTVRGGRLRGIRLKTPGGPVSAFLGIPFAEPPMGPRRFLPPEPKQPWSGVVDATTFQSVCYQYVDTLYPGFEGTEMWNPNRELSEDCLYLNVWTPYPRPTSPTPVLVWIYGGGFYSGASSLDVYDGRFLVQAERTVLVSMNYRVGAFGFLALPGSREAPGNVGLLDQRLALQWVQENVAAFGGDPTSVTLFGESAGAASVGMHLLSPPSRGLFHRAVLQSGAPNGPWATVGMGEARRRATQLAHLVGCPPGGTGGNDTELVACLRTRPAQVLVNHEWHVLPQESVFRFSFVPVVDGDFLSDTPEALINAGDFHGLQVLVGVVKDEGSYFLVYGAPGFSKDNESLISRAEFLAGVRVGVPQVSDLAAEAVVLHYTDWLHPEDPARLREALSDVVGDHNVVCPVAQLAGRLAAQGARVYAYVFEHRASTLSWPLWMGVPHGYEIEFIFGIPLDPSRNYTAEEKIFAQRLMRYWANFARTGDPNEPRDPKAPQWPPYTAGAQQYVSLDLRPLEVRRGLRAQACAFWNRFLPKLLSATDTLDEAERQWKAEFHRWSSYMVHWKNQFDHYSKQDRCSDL
Type: biochemical
`CSCC[C@H](NC(=O)[C@@H](NC(=O)[C@H](Cc1c[nH]cn1)NC(=O)[C@@H](N)CC(C)C)[C@@H](C)O)C(=O)N[C@@H](CCC(=O)O)C(=O)N[C@@H](CC(C)C)C(=O)N[C@@H](CC(C)C)C(=O)O` [LHTMELL] (H-LHTMELL-OH) showed an IC50 of 10.6 µM. `CC[C@H](C)[C@H](NC(=O)[C@H](Cc1c[nH]c2ccccc12)NC(=O)[C@@H](N)C(C)C)C(=O)N[C@H](C(=O)NCC(=O)N[C@@H](Cc1ccccc1)C(=O)N[C@@H](CCC(=O)O)C(=O)N[C@@H](Cc1c[nH]cn1)C(=O)N[C@@H](CCSC)C(=O)O)[C@@H](C)CC` [VWIIGFEHM] (H-VWIIGFEHM-OH) was tested, and the IC50 was 3.9 µM. For `CC(C)C[C@H](NC(=O)[C@H](Cc1c[nH]cn1)NC(=O)[C@@H](N)Cc1c[nH]c2ccccc12)C(=O)N[C@@H](CS)C(=O)N[C@H](C(=O)N[C@@H](CC(C)C)C(=O)N[C@@H](Cc1ccccc1)C(=O)O)C(C)C` [WHLCVLF] (H-WHLCVLF-OH), the IC50 was 1.5 µM. For `CC[C@H](C)[C@H](NC(=O)[C@@H](N)Cc1c[nH]c2ccccc12)C(=O)NCC(=O)N[C@@H](CS)C(=O)N[C@@H](Cc1c[nH]c2ccccc12)C(=O)N[C@@H](CC(=O)O)C(=O)O` [WIGCWD] (H-WIGCWD-OH), the IC50 was 1.9 µM.
